Assay results from article PMC5046073, “Prediction and evaluation of the lipase inhibitory activities of tea polyphenols with 3D-QSAR models” (Scientific Reports, 2016).

target: T1, pancreatic lipase (Sus scrofa, UniProt P00591); assay: fluorescent 4-MU oleate hydrolysis assay, type VI-S pancreatic lipase; type: biochemical; settings: not given
T1 construct: gene PNLIP
T1 sequence (P00591 1-450): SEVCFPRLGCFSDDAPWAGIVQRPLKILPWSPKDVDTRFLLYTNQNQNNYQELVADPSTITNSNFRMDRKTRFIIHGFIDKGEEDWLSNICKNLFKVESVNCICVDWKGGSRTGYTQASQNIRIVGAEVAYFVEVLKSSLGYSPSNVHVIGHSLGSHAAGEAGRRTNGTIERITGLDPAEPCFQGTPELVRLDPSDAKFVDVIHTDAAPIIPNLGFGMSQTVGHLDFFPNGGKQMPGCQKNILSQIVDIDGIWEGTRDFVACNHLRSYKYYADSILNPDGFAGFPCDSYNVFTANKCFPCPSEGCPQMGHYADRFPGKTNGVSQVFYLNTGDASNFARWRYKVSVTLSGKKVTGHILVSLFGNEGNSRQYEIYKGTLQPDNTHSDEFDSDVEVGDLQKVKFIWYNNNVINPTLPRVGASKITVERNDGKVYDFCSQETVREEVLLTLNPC

Row | Molecule | IC50
1 | O=C(Oc1cc(O)cc2c1C[C@@H](OC(=O)c1cc(O)c(O)c(O)c1)[C@@H](c1cc(O)c(O)c(O)c1)O2)c1cc(O)c(O)c(O)c1 [compound 8, (−)-epigallocatechin-3,5-di-O-gallate] | 110 nM
2 | O=C(O[C@@H]1Cc2c(O)cc(O)cc2O[C@@H]1c1cc(O)c(O)c(O)c1-c1c([C@H]2Oc3cc(O)cc(O)c3C[C@H]2OC(=O)c2cc(O)c(O)c(O)c2)cc(O)c(O)c1O)c1cc(O)c(O)c(O)c1 [compound 35, theasinensin A] | 150 nM
3 | O=C(O[C@@H]1[C@@H](c2c(O)cc(O)c3c2O[C@H](c2cc(O)c(O)c(O)c2)[C@H](OC(=O)c2cc(O)c(O)c(O)c2)C3)c2c(O)cc(O)cc2O[C@@H]1c1cc(O)c(O)c(O)c1)c1cc(O)c(O)c(O)c1 [compound 29, prodelphinidin B2-3,3′-di-O-gallate] | 100 nM
4 | O=C(OC1Cc2c(O)cc(O)c(Cc3c(O)cc(O)c4c3OC(c3cc(O)c(O)c(O)c3)C(OC(=O)c3cc(O)c(O)c(O)c3)C4)c2OC1c1cc(O)c(O)c(O)c1)c1cc(O)c(O)c(O)c1 (centres unmarked) [compound 20, oolonghomobisflavan A] | 110 nM
5 | (−)-epigallocatechin-3-O-gallate [compound 7] | 390 nM
6 | (−)-epicatechin-3-O-gallate [compound 4] | 340 nM
7 | O=C(O[C@@H]1Cc2c(O)cc(O)cc2O[C@@H]1c1cc(O)c(O)c2c(=O)c(O)cc([C@H]3Oc4cc(O)cc(O)c4C[C@H]3O)cc12)c1cc(O)c(O)c(O)c1 [compound 33, theaflavin-3′-O-gallate] | 130 nM

target: T1, pancreatic lipase; assay: biochemical; settings: not given

Row | IC50 | Molecule
8 | 6850 nM | Oc1cc(O)c2c(c1)O[C@H](c1cc(O)c(O)c(O)c1)[C@@H](O)[C@@H]2c1c(O)cc(O)c2c1O[C@H](c1cc(O)c(O)c(O)c1)[C@H](O)C2 [compound 30, prodelphinidin B4]
9 | 17300 nM | Oc1cc(O)c2c(c1)O[C@H](c1ccc(O)c(O)c1)[C@@H](O)[C@@H]2c1c(O)cc(O)c2c1O[C@H](c1ccc(O)c(O)c1)[C@H](O)C2 [compound 25, procyanidin B4]
10 | 16400 nM | Oc1cc(O)c2c(c1)O[C@H](c1cc(O)c(O)c(O)c1-c1c([C@H]3Oc4cc(O)cc(O)c4C[C@H]3O)cc(O)c(O)c1O)[C@H](O)C2 [compound 37, theasinensin C]
11 | 3240 nM | Oc1cc(O)c2c(c1)O[C@H](c1cc(O)c(O)c(O)c1)[C@H](O)[C@H]2c1c(O)cc(O)c2c1O[C@H](c1cc(O)c(O)c(O)c1)[C@H](O)C2 [compound 27, prodelphinidin B2]
12 | 300 nM | O=C(O[C@@H]1Cc2c(O)cc(O)cc2O[C@@H]1c1cc(O)c(O)c(O)c1-c1c([C@H]2Oc3cc(O)cc(O)c3C[C@H]2O)cc(O)c(O)c1O)c1cc(O)c(O)c(O)c1 [compound 36, theasinensin B]
13 | 3280 nM | Oc1cc(O)c2c(c1)O[C@H](c1ccc(O)c(O)c1)[C@@H](O)[C@@H]2c1c(O)cc(O)c2c1O[C@H](c1ccc(O)c(O)c1)[C@@H](O)C2 [compound 24, procyanidin B3]
14 | 8750 nM | Oc1cc(O)c2c(c1)O[C@H](c1ccc(O)c(O)c1)[C@H](O)[C@H]2c1c(O)cc(O)c2c1O[C@H](c1ccc(O)c(O)c1)[C@H](O)C2 [compound 23, procyanidin B2]

The remaining lines, values behind:

Row | Molecule | IC50
15 | O=C(O[C@@H]1Cc2c(O)cc(O)cc2O[C@H]1c1cc(O)c(O)c(O)c1)c1cc(O)c(O)c(O)c1 [compound 6, (−)-gallocatechin-3-O-gallate (GCG)] | 570 nM
16 | O=C(/C=C/c1ccc(O)cc1)O[C@@H]1Cc2c(O)cc(O)cc2O[C@@H]1c1cc(O)c(O)c(O)c1 [compound 10, (−)-epigallocatechin-3-O-p-coumaroate] | 970 nM
17 | Oc1cc(O)c2c(c1)O[C@H](c1ccc(O)c(O)c1)[C@@H](O)[C@@H]2c1c(O)cc(O)c2c1O[C@H](c1cc(O)c(O)c(O)c1)[C@H](O)C2 [compound 16, (+)-catechin (4α-8) (−)-epigallocatechin] | 8700 nM
18 | COc1cc(C(=O)O[C@@H]2Cc3c(O)cc(O)cc3O[C@@H]2c2ccc(O)c(O)c2)cc(O)c1O [compound 9, (−)-epicatechin 3-O-(3′-O-methyl)-gallat] | 740 nM
19 | O=C(O[C@@H]1Cc2c(O)cc(O)cc2O[C@@H]1c1ccc(O)cc1)c1cc(O)c(O)c(O)c1 [compound 15, (−)-epiafzelechin 3-O-gallate] | 2810 nM
20 | Oc1cc(O)c2c(c1)O[C@H](c1ccc(O)c(O)c1)[C@H](O)C2 [compound 3, (−)-epicatechin (EC)] | > 30000 nM

same assay, conditions: inhibitor

Row | Molecule | IC50
21 | O=C(O[C@@H]1Cc2c(O)cc(O)c([C@@H]3c4c(O)cc(O)cc4O[C@H](c4ccc(O)c(O)c4)[C@H]3O)c2O[C@@H]1c1cc(O)c(O)c(O)c1)c1cc(O)c(O)c(O)c1 [compound 17, (+)-catechin (4α-8) (−)-epigallocatechin 3-O-gallate] | 190 nM
22 | O=C(O[C@@H]1Cc2c(O)cc(O)c([C@H]3c4c(O)cc(O)cc4O[C@H](c4cc(O)c(O)c(O)c4)[C@@H]3O)c2O[C@@H]1c1ccc(O)c(O)c1)c1cc(O)c(O)c(O)c1 [compound 12, (−)-epigallocatechin (4β-8)-(−)-epicatechin-3-O-gallate] | 1230 nM
23 | O=C(O[C@@H]1[C@@H](c2c(O)cc(O)c3c2O[C@H](c2ccc(O)c(O)c2)[C@H](OC(=O)c2cc(O)c(O)c(O)c2)C3)c2c(O)cc(O)cc2O[C@@H]1c1cc(O)c(O)c(O)c1)c1cc(O)c(O)c(O)c1 [compound 14, (−)-epigallocatechin-3-O-gallate-(4β-8)-(−)-epicatechin 3-O-gallate] | 690 nM
24 | O=C(O[C@@H]1[C@@H](c2c(O)cc(O)c3c2O[C@H](c2cc(O)c(O)c(O)c2)[C@H](OC(=O)c2cc(O)c(O)c(O)c2)C3)c2c(O)cc(O)cc2O[C@@H]1c1ccc(O)c(O)c1)c1cc(O)c(O)c(O)c1 [compound 13, (−)-epicatechin-3-O-gallate-(4β-8)-(−)-epigallocatechin3-O-gallate] | 930 nM
25 | O=C(OC1Cc2c(O)cc(O)c(C(c3cc(O)c(O)c(O)c3)C(Cc3c(O)cc(O)cc3O)OC(=O)c3cc(O)c(O)c(O)c3)c2OC1c1cc(O)c(O)c(O)c1)c1cc(O)c(O)c(O)c1 (centres unmarked) [compound 1, assamicain A] | 130 nM
26 | O=C(O[C@@H]1Cc2c(O)cc(O)c([C@H]3c4c(O)cc(O)cc4O[C@H](c4ccc(O)c(O)c4)[C@@H]3O)c2O[C@@H]1c1cc(O)c(O)c(O)c1)c1cc(O)c(O)c(O)c1 [compound 11, (−)-epicatechin(4β-8)-(−)-epigallocatechin 3-O-gallate] | 160 nM
